*1 amine or outer side, *2 acyl side, *3 side chain or, on linkers, in order; H or OH if unused. Where a SMILES comes first, the peptide text is derived from it. Bridges are numbered along the chain shown (N, C = ends). Roman numbers before positions name the chains, in order. Side-chain parts run from the residue outwards. [ ]: non-standard residue; d: D form. The star is where a group is joined. C18 diacid = O=C(O)CCCCCCCCCCCCCCCCC(=O)*; γGlu = O=C(O)[C@H](CCC(=O)[*:2])N[*:1]; C14 diacid = O=C(O)CCCCCCCCCCCCC(=O)*; Desaminohistidyl = O=C(CCc1c[nH]cn1)*; AEEA = NCCOCCOCC(=O)O; Aib = CC(C)(N)C(=O)O
Legend:
[1] = molecular target: T1, human glucagon receptor (Homo sapiens, UniProt P47871); experiment: Assay (II)(b): glucagon receptor binding, [125I]-glucagon displacement, SPA on BHK membranes; settings: displacement of [125I]-glucagon, membranes with human glucagon receptor; read-out: IC50 GlucagonR
T1 construct: expressed in transfected cells; host or cells: membranes of BHK cells, clone BHK hGCGR A3*25
T1 sequence (P47871 26-477): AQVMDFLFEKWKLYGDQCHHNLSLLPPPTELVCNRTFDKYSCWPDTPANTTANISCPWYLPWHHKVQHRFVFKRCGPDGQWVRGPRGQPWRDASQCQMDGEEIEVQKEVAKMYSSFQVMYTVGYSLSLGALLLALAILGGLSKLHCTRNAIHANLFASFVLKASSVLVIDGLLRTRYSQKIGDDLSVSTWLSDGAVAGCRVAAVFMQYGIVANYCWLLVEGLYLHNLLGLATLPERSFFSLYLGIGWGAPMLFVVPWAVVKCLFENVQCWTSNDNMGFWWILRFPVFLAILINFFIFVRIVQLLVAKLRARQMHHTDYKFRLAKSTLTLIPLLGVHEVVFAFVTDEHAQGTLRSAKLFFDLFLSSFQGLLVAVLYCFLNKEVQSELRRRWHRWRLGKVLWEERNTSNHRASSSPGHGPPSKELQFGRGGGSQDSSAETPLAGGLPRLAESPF
Protocol: Assay (II): GLP-1 and Glucagon Receptor Binding The purpose of this assay is to test the in vitro receptor binding activity of the GLP-1 derivatives of the invention. (b) Glucagon Receptor Binding The glucagon receptor (glucagonR) binding activity is a measure of affinity of a derivative for the human glucagon receptor. The glucagon receptor binding of each derivative were determined with competitive binding, displacing [^125I]-glucagon bound to glucagon receptors expressed in cell membranes associated with wheat germ agglutinin (WGA) scintillation proximity assay (SPA) beads. Each derivative was added in a series of concentrations to isolated membranes comprising the human glucagon receptor and displacement of the labelled ligand was monitored. The receptor binding was reported as the concentration at which half of the labelled ligand is displaced from the receptor, the IC^50 value. The following chemicals were used in the assay: DMEM w Glutamax (Gibco 61965-026), Pen/strep (Invitrogen 15140-122), G418 (Invitrogen 10131-027), Versene (Gibco 15040), 1 M Hepes (Gibco 15630), PBS (Invitrogen 14190-094), fetal calf serum (Invitrogen 16140-071), MgCl2 (Merck 1.05832.1000), EDTA (Invitrogen 15575-038), CaCl2 (Sigma, C5080), Tween 20 (Amresco 0850C335), ovalbumin (Sigma A5503), SPA particles (wheat germ agglutinin (WGA) SPA beads, Perkin Elmer RPNQ0001), [125I]-glucagon (produced in-house), OptiPlate™-96 (Packard 6005290). HME buffer consisted of 25 mM HEPES, 2 mM MgCl2 and 1 mM EDTA, and pH was adjusted to 7.4. Assay buffer consisted of 50 mM HEPES supplemented with 5 mM MgCl2, 1 mM CaCl2, 0.02% Tween 20 and 0.1% Ovalbumin, and pH was adjusted to 7.4. The cells used in this assay (clone BHK hGCGR A3*25) were BHK cells stable transfected with an expression plasmid comprising the cDNA encoding the human glucagon receptor. The cells were grown at 5% CO2 in DMEM, 10% fetal calf serum, 1% Pen/Strep (Penicillin/Streptomycin) and 1.0 mg/ml of the selection marker G418. To make a membrane preparation the cells were grown to approximately 80% confluence. The cells were washed twice in phosphate-buffered saline and harvested. The cells were pelleted using a brief centrifugation and the cell pellet was kept on ice. Lyse the cells by adding approx. 5 ml HME buffer, mix by pipetting and snap freeze in liquid nitrogen. Thaw quickly and add HME buffer to 10 ml. The cell pellet was homogenised with an ULTRA-THURRAX dispersing instrument for 20-30 seconds. The homogenate was centrifuged at 20.000×G, 4° C. for 10 minutes. The pellet was resuspended (homogenised) in 1-2 ml HME buffer. The protein concentration was determined. The membranes were aliquoted and snapfrozen in liquid nitrogen and stored at minus 80° C. • 1. For the receptor binding assay 50 μl of the assay buffer was added to each well of an assay plate. • 2. Test compounds were serially diluted to give the following concentrations: 8×10EE-7 M, 8×10EE-8 M, 8×10EE-9 M, 8×10EE-10 M, 8×10EE-11 M, 8×10EE-12 M and 8×10EE-13 M. Twenty-five μl were added to appropriate wells in the assay plate. • 3. Cell membrane aliquots were thawed and diluted to their working concentration. Fifty μl were added to each well in the assay plate. • 4. WGA SPA beads were suspended in assay buffer at 20 mg/ml. The suspension was diluted to 10 mg/ml in assay buffer just prior to addition to the assay plate. Fifty μl were added to each well in the assay plate. • 5. The incubation was started by adding 25 μl of 480 pM solution of [125I]-glucagon to each well of the assay plate. A 25 μl aliquot was reserved for measuring total counts/well. • 6. The assay plate was incubated for 2 h at 25° C. • 7. The assay plate was centrifuged for 10 min at 1500 rpm. • 8. The assay plate was read in a Perkin Elmer TopCount NXT instrument. Calculations The data from the TopCount instrument were transferred to GraphPad Prism software. The software averaged the values for the replicates and performed a non-linear regression. […]

[2] = molecular target: T2, human GLP-1 receptor (Homo sapiens, UniProt P43220); experiment: Assay (I)(a): GLP-1 receptor potency, CRE luciferase reporter gene assay in BHK cells; format: cell-based; settings: BHK cells expressing human GLP-1 receptor, read-out: EC50 GLP-1R
T2 construct: expressed in transfected cells; host or cells: membranes of BHK cells, parent line BHKTS13, clone FCW467-12A
T2 sequence (P43220 24-463): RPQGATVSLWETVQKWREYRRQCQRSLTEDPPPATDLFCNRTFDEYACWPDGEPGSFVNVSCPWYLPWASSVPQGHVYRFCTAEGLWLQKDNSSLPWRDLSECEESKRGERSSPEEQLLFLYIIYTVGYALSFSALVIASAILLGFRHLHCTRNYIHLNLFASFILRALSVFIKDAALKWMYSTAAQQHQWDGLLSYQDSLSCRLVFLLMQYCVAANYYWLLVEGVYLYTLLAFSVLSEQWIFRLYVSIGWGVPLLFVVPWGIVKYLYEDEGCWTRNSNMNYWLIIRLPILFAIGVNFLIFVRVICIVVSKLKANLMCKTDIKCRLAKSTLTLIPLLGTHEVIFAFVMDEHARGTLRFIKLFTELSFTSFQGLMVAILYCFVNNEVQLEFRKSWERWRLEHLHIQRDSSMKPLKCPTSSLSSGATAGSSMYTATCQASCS
Outline: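 BHK cells (clone FCW467-12A/KZ10-1), 5×10EE3/well, exposed 3 h at 37° C to compound at 1×10EE-13 to 1×10EE-6 M final in medium with 2% ovalbumin and 0.2% Pluronic F-68. Luciferase luminescence read; EC50 (pM) from four-parameter fit.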

IC50 [1]	EC50 [2]	Compound
18.8 nM		CC[C@H](C)[C@H](NC(=O)[C@H](Cc1ccccc1)NC(=O)[C@H](CCC(=O)O)NC(=O)[C@H](CCCNC(=N)N)NC(=O)[C@H](C)NC(=O)[C@H](C)NC(=O)[C@H](CCC(N)=O)NC(=O)[C@H](CCC(=O)O)NC(=O)[C@H](CCC(=O)O)NC(=O)[C@H](CC(C)C)NC(=O)[C@H](Cc1ccc(O)cc1)NC(=O)[C@H](CCCCN)NC(=O)[C@H](CO)NC(=O)[C@@H](NC(=O)[C@H](CC(=O)O)NC(=O)[C@H](CO)NC(=O)[C@@H](NC(=O)[C@H](Cc1ccccc1)NC(=O)[C@@H](NC(=O)CNC(=O)[C@H](Cc1c[nH]cn1)NC(=O)C(C)(C)NC(=O)CCc1c[nH]cn1)[C@@H](C)O)[C@@H](C)O)C(C)C)C(=O)N[C@@H](C)C(=O)N[C@@H](Cc1c[nH]c2ccccc12)C(=O)N[C@@H](CC(C)C)C(=O)N[C@@H](CC(C)C)C(=O)N[C@@H](CCCCNC(=O)CNC(=O)[C@H](CO)NC(=O)[C@H](CCC(=O)O)NC(=O)CNC(=O)[C@H](CO)NC(=O)CC[C@H](NC(=O)CC[C@H](NC(=O)CCCCCCCCCCCCCCCCC(=O)O)C(=O)O)C(=O)O)C(=O)N[C@H](C(=O)O)[C@@H](C)O [Example 25, N^ε34-[2-[[(2S)-2-[[(2S)-4-carboxy-2-[[2-[[(2S)-2-[[(4S)-4-carboxy-4-[[(4S)-4-carboxy-4-(17-carboxyheptadecanoylamino)butanoyl]amino]butanoyl]amino]-3-hydroxypropanoyl]amino]acetyl]amino]butanoyl]amino]-3-hydroxypropanoyl]amino]acetyl]-[Imp7,Aib8,His9,Lys18,Glu22,Arg26,Leu33,Thr35]-GLP-1-(7-35)-peptide] (I: Desaminohistidyl-[Aib]HGTFTSDVSKYLEEQAAREFIAWLLKT-OH / II: {C18 diacid-γGlu-γGlu}-SGESG; amide I:27-II:C)
3.7 nM	0.012 nM	CC[C@H](C)[C@H](NC(=O)[C@H](Cc1ccccc1)NC(=O)[C@H](CCC(=O)O)NC(=O)[C@H](CCCNC(=N)N)NC(=O)[C@H](C)NC(=O)[C@H](C)NC(=O)[C@H](CCC(N)=O)NC(=O)[C@H](CCC(=O)O)NC(=O)[C@H](CCC(=O)O)NC(=O)[C@H](CC(C)C)NC(=O)[C@H](Cc1ccc(O)cc1)NC(=O)[C@H](CCCCN)NC(=O)[C@H](CO)NC(=O)[C@@H](NC(=O)[C@H](CC(=O)O)NC(=O)[C@H](CO)NC(=O)[C@@H](NC(=O)[C@H](Cc1ccccc1)NC(=O)[C@@H](NC(=O)CNC(=O)[C@H](Cc1c[nH]cn1)NC(=O)C(C)(C)NC(=O)CCc1c[nH]cn1)[C@@H](C)O)[C@@H](C)O)C(C)C)C(=O)N[C@@H](C)C(=O)N[C@@H](Cc1c[nH]c2ccccc12)C(=O)N[C@@H](CC(C)C)C(=O)N[C@@H](CC(C)C)C(=O)N[C@@H](CCCCNC(=O)COCCOCCNC(=O)COCCOCCNC(=O)CC[C@H](NC(=O)CC[C@H](NC(=O)CCCCCCCCCCCCC(=O)O)C(=O)O)C(=O)O)C(=O)N[C@H](C(N)=O)[C@@H](C)O [Example 38, N^ε34-[2-[2-[2-[[2-[2-[2-[[(4S)-4-carboxy-4-[[(4S)-4-carboxy-4-(13-carboxytridecanoylamino)butanoyl]amino]butanoyl]amino]ethoxy]ethoxy]acetyl]amino]ethoxy]ethoxy]acetyl]-[Imp7,Aib8,His9,Lys18,Glu22,Arg26,Leu33,Thr35]-GLP-1-(7-35)-peptide amide] (Desaminohistidyl-[Aib]HGTFTSDVSKYLEEQAAREFIAWLLK([AEEA-AEEA-γGlu-γGlu-C14 diacid])T-NH2)
